# Source: US10647680B2, “Urea compound, preparation method therefor and medical use thereof” (Ancureall Pharmaceutical (Shanghai) Co., Ltd., priority 2016, dated 2020)
# Legend:
# HL-60 (FLT3 wild type) = assay: In vitro growth inhibition (GI50), HL-60; assay type: cell-based; settings: Homo sapiens, Cell lines of leukemia, read-out: GI 50 HL60 FLT3 (WT)
# From the text: (§1) 1. Cell Lines and Cell Cultures
# (§2) Tumor cell line is an effective cell model for studying the inhibition of tumor cell growth or proliferation in vitro. In the present invention, a representative tumor cell line was selected to determine the cell growth inhibition activity of the present compound. All cell lines used were from ATCC, DSMZ, and the Cell Bank of the Chinese Academy of Sciences. Cell culture conditions and methods were in accordance with the requirements of each cell line. Cells were subcultured in vitro for no more than 3 passages each time, and as required, single-clone purification and identification of cell lines could be carried out.
# (§3) The cell culture media used were RPMI1640 (Gibco), MEM (Gibco), McCOY'S5A (Gibco), and IMDM (Gibco). The complete medium was prepared by supplement with 5˜20% fetal calf serum (Gibco), 1% double-antibiotics (10000 units/mL penicillin and 10000 units/mL), 2 mM glutamine or 1 mM sodium pyruvate, respectively.
# (§4) The human acute […] monomonocyte leukemia cell line MV4-11 (FLT3 ITD+/+ mutant type, ATCC) was cultured in a complete medium comprising 1×IMDM and 10% FBS. Human acute myeloid leukemia cell line MOLM-13 (FLT3 ITD+/− mutant type, DSMZ), human acute lymphoblastic leukemia cell line RS4; 11 (FLT3 wild type, ATCC), human chronic granulocytic leukemia cell line K562 (FLT3 negative expression, positive expression of BCR-ABL fusion protein, ATCC), human promyelocytic leukemia cell line HL-60 (FLT3 wild type, ATCC), human B lymphoblastic leukemia cell line RAMOS (positive expression of Brutons tyrosine protein kinase, ATCC), human acute myeloid leukemia cell line Kasumi-1 (c-Kit N822K mutant type, ATCC), human acute monocytic leukemia cell line U937 (FLT3 wild-type, ATCC), human acute myeloid leukemia cell line OCI-AML3 (NPMc+ mutant type, ATCC), human acute myeloid leukemia cell line KG-1 (expressing FGFR1OP2-FGFR1 fusion protein, ATCC) were cultured in a complete medium comprising 1×RPMI1640 and 10% FBS, respectively.
# (§5) Adherent cells were digested with 0.25% pancreatin-EDTA (Gibco). The suspension cells were collected by centrifugation. The supernatant was discarded and the cell pellet was resuspended and counted. Different cell concentrations (5˜10×10^4 cells/mL) were prepared according to the growth cycle of each cell line and then seeded on a 96-well plate (Corning), 100 μL/well. The cells were incubated overnight at 37° C., 5% CO2. The compounds were added to the cells on the second day with 2 wells in parallel. The final concentration of organic solvent shall not exceed 1%. The cells were continually incubated for 3 to 5 days, and then subjected to MTT assay.
# (§6) The compound of the present invention and the control compound were dissolved in DMSO (Sigma) respectively, with the purity of more than 98%. The compound was stored in a concentration of 10 mM at −20° C. and diluted to 2- or 10-fold series prior to use.
# (§7) Dojindo CCK8 reagent kit was used as MTT assay. THERMO […] FC meter was used as microplate reader.
# (§8) For adherent cells, culture medium was removed and immediately replaced with the fresh prepared medium which contains 10% CCK8 reagent (100 μL/well). For the suspension cells, CCK8 was directly added to 10% of the final concentration. The cells were continually incubated for 1˜4 h. When a dark yellow color could be observed in the solvent control wells, the absorbance value at OD450 nm was measured and the cell growth rate was calculated according to the following formula: Cell Growth Rate (%)=100*(T−T0)/(C−T0) T=optical density of drug treatment cell well—optical density of blank control well; T0=optical density of cell well before drug treatment—optical density of blank control well; C=optical density of cell well of solvent control group—optical density of blank control well. The concentration value of 50% inhibition of cell growth (GI50) was calculated according to the drug concentration and cell growth rate curve. […]
# [1] = system: MOLM-13 (FLT3 ITD+/− mutant type); assay: In vitro growth inhibition (GI50), MOLM-13; assay type: cell-based, human; settings: Homo sapiens, MOLM-13; Cell lines of leukemia; read-out: GI 50 MOLM-13 FLT3 (ITD+/−)
# From the text: as §1, §2, §3, §4
# as §5, with “The” for “Adherent cells were digested with 0.25% pancreatin-EDTA (Gibco). The”
# (§9) The compound was stored in a concentration of 10 mM at −20° C. and diluted to 2- or 10-fold series prior to use.
# (§10) Dojindo CCK8 reagent kit was used as MTT assay. […] FC meter was used as microplate reader.
# (§11) For adherent cells, culture medium was removed and immediately replaced with the fresh prepared medium which contains 10% CCK8 reagent (100 μL/well). For the suspension cells, CCK8 was directly added to 10% of the final concentration. The cells were continually incubated for 1˜4 h. […] The experiment was independently repeated 1˜3 times, and subject to biological statistical analysis. 4. Experimental Results
# (§12) The initial concentration of the compound was 5,000 nM, then it was serially diluted by 2-fold or 10-fold to 0.01 nM. The GI50 value of each test compound was calculated according to the GI50 assay and calculation method. The experiments were repeated 1 to 3 times, and data were subjected to biological statistical analysis.
# RS4; 11 (FLT3 wild type) = assay: In vitro growth inhibition (GI50), RS4; 11; assay type: cell-based, human; settings: Homo sapiens, RS4-11; Cell lines of leukemia; read-out: GI 50 RS4: 11 FLT3 (WT)
# From the text: as §1, §2, §3, §4
# as §5, with “The” for “Adherent cells were digested with 0.25% pancreatin-EDTA (Gibco). The”
# as §9, §10, §11, §12
# [2] = system: OCI-AML3 (NPMc+ mutant type); assay: In vitro growth inhibition (GI50), OCI-AML3; assay type: cell-based; settings: Homo sapiens, OCI-AML-3; Cell lines of leukemia; read-out: GI 50 OCI- AML3 NPMc+
# From the text: as §1, §2, §3, §4
# as §5, with “The” for “Adherent cells were digested with 0.25% pancreatin-EDTA (Gibco). The”
# as §9, §10, §11, §12
# [3] = system: RAMOS (positive expression of Brutons tyrosine protein kinase); assay: In vitro growth inhibition (GI50), RAMOS; assay type: cell-based; settings: Homo sapiens, Cell lines of leukemia, read-out: GI 50 Ramos BTK
# From the text: as §1, §2, §3, §4
# as §5, with “The” for “Adherent cells were digested with 0.25% pancreatin-EDTA (Gibco). The”
# as §9, §10, §11, §12
# [4] = system: MV4-11 (FLT3 ITD+/+ mutant type); assay: In vitro growth inhibition (GI50), MV4-11; assay type: cell-based, human; settings: Homo sapiens, MV4-11; Cell lines of leukemia; read-out: GI 50 MV4-11 FLT3 (ITD +/+)
# From the text: as §1, §2, §3, §4
# as §5, with “The” for “Adherent cells were digested with 0.25% pancreatin-EDTA (Gibco). The”
# as §9, §10, §11, §12
# [5] = system: K562 (FLT3 negative expression, positive expression of BCR-ABL fusion protein); assay: In vitro growth inhibition (GI50), K562; assay type: cell-based; settings: Homo sapiens, Cell lines of leukemia, read-out: GI 50 K562 BCR-ABL
# From the text: as §1, §2, §3, §4
# as §5, with “The” for “Adherent cells were digested with 0.25% pancreatin-EDTA (Gibco). The”
# as §9, §10, §11, §12
# [6] = system: Kasumi-1 (c-Kit N822K mutant type); assay: In vitro growth inhibition (GI50), Kasumi-1; assay type: cell-based; settings: Homo sapiens, Cell lines of leukemia, read-out: GI 50 Kasumi-1 Kit (N822K)
# From the text: as §1, §2, §3, §4, §5, §6, §7, §8
# U937 (FLT3 wild-type) = assay: In vitro growth inhibition (GI50), U937; assay type: cell-based; settings: Homo sapiens, U-937; Cell lines of leukemia; read-out: GI 50 U937 FLT 3(WT)
# From the text: as §1, §2, §3, §4
# as §5, with “The” for “Adherent cells were digested with 0.25% pancreatin-EDTA (Gibco). The”
# as §9, §10, §11, §12
# [7] = system: KG-1 (expressing FGFR1OP2-FGFR1 fusion protein); assay: In vitro growth inhibition (GI50), KG-1; assay type: cell-based; settings: Homo sapiens; Cell lines of leukemia; read-out: GI 50 KG-1 FGFR1OP 2-FGFR1
# From the text: as §1, §2, §3, §4
# as §5, with “The” for “Adherent cells were digested with 0.25% pancreatin-EDTA (Gibco). The”
# as §9, §10, §11, §12
Structure (SMILES),GI50 (HL-60 (FLT3 wild type)) [µM],GI50 [1] [µM],GI50 (RS4; 11 (FLT3 wild type)) [µM],GI50 [2] [µM],GI50 [3] [µM],GI50 [4] [µM],GI50 [5] [µM],GI50 [6] [µM],GI50 (U937 (FLT3 wild-type)) [µM],GI50 [7] [µM]
"CCOc1ccc2c(c1)ncn2-c1ccc(NC(=O)Nc2cc(C(C)(C)C)on2)cc1 [Compound 6, 1-(5-tert-butyl-isoxazol-3-yl)-3-[4-(5-ethoxyl-benzimidazol-1-yl)-phenyl]-urea]",> 1,0.0001 to 0.001,> 1,> 1,> 1,0.0001 to 0.001,> 1,> 1,> 1,> 1
"CCCCCCOc1ccc2c(c1)ncn2-c1ccc(NC(=O)Nc2cc(C(C)(C)C)on2)cc1 [Compound 7, 1-(5-tert-butyl-isoxazol-3-yl)-3-[4-(5-hexyloxyl-benzimidazol-1-yl)-phenyl]-urea]",> 1,0.0001 to 0.001,> 1,> 1,> 1,0.0001 to 0.001,> 1,> 1,> 1,> 1
"CC(C)Oc1ccc2c(c1)ncn2-c1ccc(NC(=O)Nc2cc(C(C)(C)C)on2)cc1 [Compound 8, 1-(5-tert-butyl-isoxazol-3-yl)-3-[4-(5-isopropoxy-benzimidazol-1-yl)-phenyl]-urea]",> 1,0.0001 to 0.001,> 1,> 1,> 1,0.0001 to 0.001,> 1,> 1,> 1,> 1
"CC1(COc2ccc3c(c2)ncn3-c2ccc(NC(=O)Nc3cc(C(C)(C)C)on3)cc2)COC1 [Compound 9, 1-(5-tert-butyl-isoxazol-3-yl)-3-{4-[5-(3-methyl-oxetan-3-ylmethoxy)-benzimidazol-1-yl]-phenyl]urea]",> 1,0.0001 to 0.001,> 1,> 1,> 1,0.0001 to 0.001,> 1,> 1,> 1,> 1
"CC(C)(C)c1cc(NC(=O)Nc2ccc(-n3cnc4cc(OCC5CCCO5)ccc43)cc2)no1 (stereo not shown) [Compound 10, 1-(5-tert-butyl-isoxazol-3-yl)-3-{4-[5-(tetrahydrofuran-2-ylmethoxy)-benzimidazol-1-yl]-phenyl}-urea]",> 1,0.0001 to 0.001,> 1,> 1,> 1,0.0001 to 0.001,> 1,> 1,> 1,> 1
"CCOCCOc1ccc2c(c1)ncn2-c1ccc(NC(=O)Nc2cc(C(C)(C)C)on2)cc1 [Compound 13, 1-(5-tert-butyl-isoxazol-3-yl)-3-{4-[5-(2-ethoxyl-ethoxyl)-benzimidazol-1-yl]-phenyl]-urea]",> 1,0.0001 to 0.001,> 1,> 1,> 1,0.0001 to 0.001,> 1,> 1,> 1,> 1
"CC(C)(C)c1cc(NC(=O)Nc2ccc(-n3cnc4cc(OC(=O)N5CCOCC5)ccc43)cc2)no1 [Compound 15, 1-{4-[3-(5-tert-butyl-isoxazol-3-yl)-carbamido]-phenyl}-1H-benzimidazol-5-yl morpholin-4-carboxylate]",> 1,0.0001 to 0.001,> 1,> 1,> 1,0.0001 to 0.001,> 1,> 1,> 1,> 1
"CC(C)(C)c1cc(NC(=O)Nc2ccc(-n3cnc4cc(OCCN5CCCCC5)ccc43)cc2)no1 [Compound 17, 1-(5-tert-butyl-isoxazol-3-yl)-3-{4-[5-(2-piperidin-1-yl-ethoxyl)-benzimidazol-1-yl]-phenyl}-urea]",0.1 to 1,0.0001 to 0.001,0.1 to 1,> 1,0.1 to 1,0.0001 to 0.001,0.1 to 1,0.1 to 1,0.1 to 1,0.1 to 1
"CC(C)(C)c1cc(NC(=O)Nc2ccc(-n3cnc4cc(OCCN5CCCCCC5)ccc43)cc2)no1 [Compound 18, 1-{4-[5-(2-azepan-1-yl-ethoxyl)-benzimidazol-1-yl]-phenyl}3-(5-tert-butyl-isoxazole-3-yl)-urea]",0.1 to 1,0.001 to 0.01,> 1,> 1,0.1 to 1,0.001 to 0.01,> 1,0.1 to 1,> 1,0.1 to 1
"CN1CCN(CCCOc2ccc3c(c2)ncn3-c2ccc(NC(=O)Nc3cc(C(C)(C)C)on3)cc2)CC1 [Compound 19, 1-(5-tert-butyl-isoxazol-3-yl)-3-(4-{5-[3-(4-methyl-piperazin-1-yl)-propoxyl]-benzimidazol-1-yl}-phenyl)-urea]",0.1 to 1,0.0001 to 0.001,0.01 to 0.1,> 1,0.1 to 1,0.0001 to 0.001,0.1 to 1,0.1 to 1,> 1,0.1 to 1
